Data set [1] is described as follows: Solubility assessment, shake-flask method. Conditions: for solubility: shake-flask. The data set is classed as physicochemical. On the procedure:
Compound solubility was measured at Analiza (Cleveland, OH) by the standard shake-flask method at pH 1.2 and 7.4 and quantitated by HPLC-UV.

The next data set has as its system HIV-1 (IIIB strain). Nature of the data set: MT-4 antiviral cytopathic effect assay, HIV-1 IIIB. It counts as cell-based. Conditions: HIV-1 IIIB, WT, read-out: EC50 MT4. On the procedure:
(§1) The prepared compounds were tested for their anti-HIV-1 activity (Table 1). A viral cytopathic effect assay in MT-4 cells with HIV-1 IIIB virus was used to determine compound potency (EC50, 50% cell viability) in protecting virus induced cell killing. Compound cytotoxicity was assessed in MT-4 cells in the absence of virus (CC50, 50% cytotoxicity).
(§2) Compounds were tested in a high-throughput 384-well assay format for their ability to inhibit the virus replication-induced cytopathic effect in MT-4 cell cultures acutely infected with HIV-1 (IIIB strain), HXB2, HXB2-K103N, and HXB2-Y181C. Compounds were serially diluted (1:3) in DMSO on 384-well polypropylene plates and further diluted 200-fold into complete RPMI media (10% FBS, 1% P/S) using Biotek Micro Flow and an Agilent ECHO acoustic dispenser. Each plate contained up to eight test compounds, with negative (no drug control) and 5 μM AZT positive controls. MT-4 cells were further diluted in complete RPMI media and added to each plate using a Micro-Flo dispenser. After five days of incubation in a humidified and temperature-controlled incubator (37 °C), Cell Titer Glo (Promega) was added to the assay plates to quantify the amount of […]. EC50 and CC50 values were defined as the compound concentration that causes a 50% decrease in luminescence signal and were calculated using a sigmoidal dose-response model to generate curve fits.
(Protection from cytopathic effect is a common read-out in antiviral testing.)

The next data set has as its system HIV-1 HXB2 K103N variant. The data set can be described thus: MT-4 antiviral cytopathic effect assay, HXB2-K103N. It counts as cell-based. On the procedure:
(§3) The prepared compounds were tested for their anti-HIV-1 activity (Table 1). A viral cytopathic effect assay in MT-4 cells with HIV-1 IIIB virus was used to determine compound potency (EC50, 50% cell viability) in protecting virus induced cell killing. Compound cytotoxicity was assessed in MT-4 cells in the absence of virus (CC50, 50% cytotoxicity). […] ETV contains bromo and amino substitutions on the DAPY core. […] Likely, with the smaller cyano arm I in 1, 3, and 5, the cores could be further elaborated to optimize the compound position in the pocket and to improve potency.
as §2

The next data set relates to HIV-1 HXB2. Nature of the data set: MT-4 antiviral cytopathic effect assay, HXB2 wild-type virus. It counts as cell-based. Conditions: Human immunodeficiency virus 1, MT4; HIV-1 HXB2 wild-type, MT-4 cells; read-out: EC50 HXB2. On the procedure: as §1, §2
The nature of data set [2]: MDCK permeability assay (A to B). The data set is classed as in vitro ADME, Canine. Conditions: dog, MDCK. The source says:
Compounds were further tested in a Madin–Darby Canine Kidney (MDCK) assay to evaluate their potential for oral absorption. […] Additionally, there was no trend for better permeability when comparing arm I versus arm II when matched with the same core. The size of the B ring had the greatest influence on Papp with the trend being five-membered > six-membered > seven-membered rings (Table 1).
cMdr1-KO cells were maintained in Dulbecco’s modified Eagle’s medium (DMEM) with sodium pyruvate and GlutaMax, supplemented with 1% Pen/Strep and 10% fetal bovine serum in an incubator set at 37 °C, 90% humidity, and 5% CO2. MDCKII- cMdr1-KO cells were grown to confluence over 3 days on 96-well PET plates with 1 μm pore size, polyester membrane (Corning 3392). Experiments were run using HBSS donor buffer from Invitrogen containing an additional 10 mM HEPES, 15 mM glucose, and 0.1% BSA adjusted to pH 7.4. The receiver well had HBSS buffer supplemented with 1% BSA, 10 mM HEPES, 15 mM glucose, and the pH was adjusted to 7.4. TEER values were read to test membrane integrity at the beginning of the assay. The experiment was started by the addition of dosing solutions containing test compounds. Samples were taken from the donor compartment at 0/120 min and from the receiver compartment at 120 min. Each compound was tested in two separate replicate wells. All samples were immediately collected in a 72:8:20 MeCN/MeOH:H2O mix to precipitate protein and stabilize the test compounds. Cells were dosed on the apical side to determine forward (A to B) permeability. To test for non-specific binding and compound instability, the total amount of drug was quantified at the end of the experiment and compared to the material present in the original dosing solution as a percentage of recovery. Samples were analyzed by RF-QToF.

Another data set is described as follows: in vitro. It counts as cell-based. Conditions: human. The method, then: as §3, §2
Data set [3] in a line: Predicted clearance in human liver microsomes. The data set is classed as in vitro ADME. Conditions: pH 7.4, 1 μM compound, read-out: HLM CLint, pred (converted). The method, then:
Next, microsome stability was profiled in purified human liver microsomes (HLM).
Metabolic stability of compounds was assessed using HLM (Corning cat. 457117).[52] In this assay, 10 nL compounds at a concentration of 1 mM in 100% DMSO are dispensed into 384-well polypropylene plates using the Echo 550 acoustic liquid dispenser (Labcyte). Each plate contains 384 wells with a single test compound in each well.
A solution of HLM at 2 mg/mL in 100 mM K2HPO4/KH2PO4 pH 7.4 with 0.0225 mg/mL Alamethicin from Trichoderma viride (Sigma-Aldrich cat. A4665-10MG) was incubated on ice for 15 min. 5 μL of this solution was added to individual wells following 15 min incubation at room temperature; and supplemented with 5 μL NADPH Regenerating Solution of cofactors (Corning Gentest UGT Reaction Mix solutions A and B, cat. 451200 and 451220) containing 100 mM K2HPO4/KH2PO4 pH 7.4, 2.6 mM NADP^+, 6.6 mM glucose-6-phosphate, 6.6 mM MgCl2, 0.8 U/mL glucose-6-phosphate dehydrogenase, 0.1 mM sodium citrate, and 6.8 mM uridine diphosphate-glucuronic acid. The final concentration of analyte compounds at the beginning of the reactions was 1 μM. The reactions were incubated at 37 °C, and time points of 0, 5, 15, 30, 40, 50, 60, and 70 min were collected for further analysis. Background data were collected using reactions without analyte compounds.
Upon collection of the reaction time points, samples were quenched at the set time points with 30 μL of a solution of 72% acetonitrile, 8% methanol, 0.1% formic acid, 19.9% water, and labetalol as an internal standard (IS) at a concentration of 650 nM. Reaction plates were span in a centrifuge at a speed of 4000 rcf for 30 min and 4 °C, following a dilution of the 10 μL quenched reaction into 40 μL de-ionized water, yielding assay plates.
Samples were analyzed by a solid-phase extraction coupled with a quadrupole time-of-flight mass spectrometer, using an Agilent QToF 6530 RapidFire 360 system with C4 type A solid state cartridges. Analysis was performed in either positive or negative ionization modes. Mobile phases contained 0.1% formic acid in water for loading analytes onto solid state extraction cartridges, and 0.1% formic acid in acetonitrile for elution into the mass spectrometer in positive ionization mode, or 0.1% acetic acid in water for loading and 0.1% acetic acid in acetonitrile for extraction in negative ionization mode. Peak-area ratios of integrated counts for individual compounds to IS were plotted as a semi-logarithmic chart of log versus time. Initial, linear portion of decay was fitted to a linear regression equation to derive the half-time of a compound decay.
Pharmacological parameters for an analyte compound metabolism were calculated using the equations described in Table S2.
Table S2. Pharmacological parameters for an analyte compound metabolism were
calculated using the following equations:
Intrinsic Clearance (in Cl = ln 2
int, in vitro T1/2 ∗ Conc
Intrinsic Clearance Cl = Clint, in vitro ∗ Liver Mass ∗ Yield
Predicted Hepatic Cl = Clint ∗ QH
QH (Hepatic Blood Flow) = 1.3 L/hr/kg

Data set [4] in a line: Solubility assessment, shake-flask method. Conditions: compared to the other compounds, in words. It counts as physicochemical.
Another data set deals with HIV-1 HXB2 Y181C variant. Nature of the data set: MT-4 antiviral cytopathic effect assay, HXB2-Y181C. The data set is classed as cell-based. On the procedure: as §3, §2
Setting [5] is: supplement CSV, fold change vs HXB2.

pEC50: −log10 of the molar value. ≈ marks a conversion by molar mass, not a printed value. Like-named read-outs stand apart in the source and are kept apart here.

Regarding `Cc1cc(/C=C/C#N)cc(C)c1N1CC(=O)Nc2cnc(Nc3ccc(C#N)cc3)nc21` [Compound 4, 4-[(8-{4-[(1E)-2-Cyanoeth-1-en-1-yl]-2,6-dimethylphenyl}-6-oxo-5,6,7,8-tetrahydropteridin-2-yl)amino]benzonitrile], the solubility (commonly the dissolved amount per volume that the medium holds) came out at 6.5 µM (≈ 2.74 µg/mL) in data set [1] (HCl, pH 1.2, read-out: solubility HCl) and 1.8 µM (≈ 0.759 µg/mL) in data set [1] (phosphate-buffered saline, pH 7.4, read-out: solubility PBS). The compound also gave an HCl sol in [1] (supplement CSV) of 6.5 µM. The compound also came in with a PBS sol in data set [1] (supplement CSV) of 1.8 µM. Besides, the pEC50 (commonly the negative decadic logarithm of the EC50, by convention in mol/L) with HIV-1 (IIIB strain) (Human immunodeficiency virus 1, IIIB, MT4, protects 50% of MT-4 cells against HIV-1-induced cell killing) is 8.52 to 8.59; with HIV-1 (IIIB strain) (protects 50% of MT-4 cells against HIV-1-induced cell killing), 8.57; with HIV-1 HXB2 K103N variant (Human immunodeficiency virus 1, HXB2, read-out: EC50 K103N), 8.55; with HIV-1 HXB2, 8.62; in the data set with HIV-1 HXB2 Y181C variant (Human immunodeficiency virus 1, HXB2, read-out: EC50 Y181C), 8.31. Moreover, the “K103N (FC)” value is listed as 1.2 in the data set on HIV-1 HXB2 K103N variant (fold change: ratio of potency against HXB2 K103N and parental HXB2); 1.2 in the data set on HIV-1 HXB2 K103N variant (setting [5]). In addition, the apparent permeability from apical to basolateral (Papp A→B) (usually the apparent permeability from the apical to the basolateral side of a cell layer) at 120 min in [2] (supplement CSV) was found to be 4.2 ×10⁻⁶ cm/s; in data set [2] (apparent permeability coefficient, A to B, pH 7.4) it was 4.2 ×10⁻⁶ cm/s. In the data set “in vitro”, half-maximal cytotoxicity (CC50 at 120 h) was put at 42400 nM. Besides, in data set [3], the CLint scaled at 1.167 h, 1 µM was 16.3 mL/min/kg. Moreover, the “solubility at pH 2” value in [4] is “markedly reduced”. In addition, the “Y181C (FC)” value with HIV-1 HXB2 Y181C variant (fold change: ratio of potency against HXB2 Y181C and parental HXB2) was found to be 2.0; in the data set on HIV-1 HXB2 Y181C variant (setting [5]), 2.0.

These data come from publication PMC10017027, “Design and Synthesis of Novel HIV-1 NNRTIs with Bicyclic Cores and with Improved Physicochemical Properties” (Journal of Medicinal Chemistry, 2023).
